Where two headings read alike, the source gives them in different places. Where a SMILES comes first, the peptide text is derived from it. The star is where a group is joined. Cbz = O=C(OCc1ccccc1)*
Tests used:
cathepsin B = biological target: T1, cathepsin B (Homo sapiens, UniProt P07858); assay: biochemical
T1 construct: purchased Abcam

neutrophil elastase = biological target: T2, neutrophil elastase (Homo sapiens, UniProt P08246); assay: biochemical
T2 construct: purchased Sigma-Aldrich
T2 sequence (P08246 30-267): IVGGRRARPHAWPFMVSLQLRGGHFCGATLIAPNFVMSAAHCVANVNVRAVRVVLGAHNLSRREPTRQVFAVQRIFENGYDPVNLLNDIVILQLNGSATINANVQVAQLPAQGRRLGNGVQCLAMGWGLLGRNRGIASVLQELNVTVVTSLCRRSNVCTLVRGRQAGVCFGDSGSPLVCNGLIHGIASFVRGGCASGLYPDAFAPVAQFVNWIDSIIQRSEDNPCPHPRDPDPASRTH

[1] = tested on: SARS-CoV-2 pseudoviruses in cells expressing hACE2; assay: microbe, parasite or virus in culture; assay type: cell-based; settings: Severe acute respiratory syndrome coronavirus 2, HEK-293T, read-out: EC50 Pseudovirus entry assay hACE2
SARS-CoV-2 replicon [2] = settings: cited from earlier work
chymotrypsin = assay type: biochemical, human
SARS-CoV-2 3CLpro [3] = biological target: T3, SARS-CoV-2 3CLpro (Severe acute respiratory syndrome coronavirus 2, UniProt P0DTD1); settings: read-out: IC50 SARS-CoV-2 (3CLpro); cited from earlier work
[4] = tested on: SARS-CoV-2 pseudoviruses in cells expressing hACE2 plus TMPRSS2; assay: microbe, parasite or virus in culture; assay type: cell-based; settings: Severe acute respiratory syndrome coronavirus 2, HEK-293T, read-out: EC50 Pseudovirus entry assay hACE2+ TMPRSS2
cathepsin D = biological target: T4, cathepsin D (Homo sapiens, UniProt P07339); assay: biochemical
T4 construct: purchased Abcam

cathepsin L = biological target: T5, cathepsin L (Homo sapiens, UniProt P07711); assay: biochemical
T5 construct: purchased AnaSpec

MERS-CoV 3CLpro [5] = biological target: T6, MERS-CoV 3CLpro (Middle East respiratory syndrome-related coronavirus, UniProt K9N7C7); settings: read-out: IC50 MERS-CoV (3CLpro); cited from earlier work
cathepsin G = biological target: T7, cathepsin G (Homo sapiens, UniProt P08311); assay: biochemical
T7 construct: purchased Novus Biological
T7 sequence (P08311 21-255): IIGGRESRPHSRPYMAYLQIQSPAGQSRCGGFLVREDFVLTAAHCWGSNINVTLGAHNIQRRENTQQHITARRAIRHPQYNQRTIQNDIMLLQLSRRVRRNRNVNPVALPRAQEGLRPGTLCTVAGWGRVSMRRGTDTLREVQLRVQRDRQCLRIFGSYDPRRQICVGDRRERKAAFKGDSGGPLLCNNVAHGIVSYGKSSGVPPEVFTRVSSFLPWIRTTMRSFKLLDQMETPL

thrombin = biological target: T8, thrombin (Homo sapiens, UniProt P00734); assay: biochemical
T8 construct: purchased AnaSpec

SARS-CoV-2 replicon [6] = assay: microbe, parasite or virus in culture; assay type: cell-based; settings: Severe acute respiratory syndrome coronavirus 2, read-out: EC50 SARS-CoV-2 replicon
MERS-CoV 3CLpro [7] = biological target: T6, MERS-CoV 3CLpro; assay: biochemical
SARS-CoV-2 3CLpro [8] = biological target: T3, SARS-CoV-2 3CLpro; assay: biochemical

T6 sequence (K9N7C7 3248-3553 limits assumed): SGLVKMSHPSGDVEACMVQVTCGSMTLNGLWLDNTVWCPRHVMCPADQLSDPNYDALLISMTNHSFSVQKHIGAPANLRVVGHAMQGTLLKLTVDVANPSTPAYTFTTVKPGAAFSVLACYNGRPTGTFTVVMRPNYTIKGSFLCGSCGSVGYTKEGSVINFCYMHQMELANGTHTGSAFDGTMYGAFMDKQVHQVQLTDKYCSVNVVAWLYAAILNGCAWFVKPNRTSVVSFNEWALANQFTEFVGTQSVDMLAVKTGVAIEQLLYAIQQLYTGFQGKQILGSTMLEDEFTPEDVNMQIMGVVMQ
T4 sequence (P07339 65-412): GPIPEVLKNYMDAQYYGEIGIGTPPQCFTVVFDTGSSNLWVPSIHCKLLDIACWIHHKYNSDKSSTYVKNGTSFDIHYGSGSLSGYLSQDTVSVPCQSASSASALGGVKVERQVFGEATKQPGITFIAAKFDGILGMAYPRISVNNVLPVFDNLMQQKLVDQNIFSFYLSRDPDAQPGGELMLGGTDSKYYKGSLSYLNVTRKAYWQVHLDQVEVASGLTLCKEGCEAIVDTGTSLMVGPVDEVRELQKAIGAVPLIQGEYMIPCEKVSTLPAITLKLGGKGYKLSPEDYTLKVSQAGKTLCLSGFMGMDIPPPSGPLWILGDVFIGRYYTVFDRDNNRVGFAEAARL
T5 sequence (P07711 114-333): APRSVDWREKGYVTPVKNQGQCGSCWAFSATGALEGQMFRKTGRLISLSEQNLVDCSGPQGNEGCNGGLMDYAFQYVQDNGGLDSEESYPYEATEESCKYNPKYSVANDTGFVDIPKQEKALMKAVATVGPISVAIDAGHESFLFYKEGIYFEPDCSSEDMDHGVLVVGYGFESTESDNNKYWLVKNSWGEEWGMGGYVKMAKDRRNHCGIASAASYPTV

Row | Structure (SMILES) | IC50 (cathepsin B) | IC50 (neutrophil elastase) | EC50 [1] | EC50 (SARS-CoV-2 replicon [2]) | IC50 (chymotrypsin) | IC50 (SARS-CoV-2 3CLpro [3]) | EC50 [4] | IC50 (cathepsin D) | IC50 (cathepsin L) | IC50 (MERS-CoV 3CLpro [5]) | IC50 (cathepsin G) | IC50 (thrombin) | EC50 (SARS-CoV-2 replicon [6]) | IC50 (MERS-CoV 3CLpro [7]) | IC50 (SARS-CoV-2 3CLpro [8])
1 | CC(C)CC(NC(=O)OCC1CC1c1cccc(F)c1)C(=O)NC(C=O)CC1CCNC1=O (stereo not shown) [5c] | 240 ± 50 nM | > 50000 nM | 60 ± 30 nM | 12 nM | > 50000 nM | 180 ± 30 nM | > 50000 nM | > 50000 nM | 30 ± 10 nM | 80 ± 30 nM | > 50000 nM | > 50000 nM |  |  | 
2 | N=C(N)c1ccc2cc(OC(=O)c3ccc(N=C(N)N)cc3)ccc2c1 [Nafamostat] |  |  | > 50000 nM |  |  |  |  |  |  |  |  |  | > 50000 nM | > 50000 nM | > 50000 nM
3 | COc1ccccc1C1CC1COC(=O)NC(CC(C)C)C(=O)NC(C=O)CC1CCNC1=O (stereo not shown) [11c] | 310 ± 50 nM | > 50000 nM | 130 ± 30 nM |  | > 50000 nM | 140 ± 40 nM | > 50000 nM | > 50000 nM | 30 ± 10 nM | 120 ± 110 nM | > 50000 nM | > 50000 nM |  |  | 
4 | CC(C)[C@H](NC(=O)OCc1ccccc1)C(=O)N[C@H](C=O)Cc1ccccc1 [MDL28170] (Cbz-Val-Phe-aldehyde) |  |  | 10 ± 30 nM |  |  |  | > 50000 nM |  |  |  |  |  | > 50000 nM | > 50000 nM | > 50000 nM
5 | COc1ccccc1C1CC1COC(=O)NC(CC(C)C)C(=O)NC(CC1CCNC1=O)C(O)S(=O)(=O)O (stereo not shown) [11d] | 270 ± 60 nM | > 50000 nM | 120 ± 50 nM | 12 nM | > 50000 nM | 140 ± 50 nM | > 50000 nM | > 50000 nM | 20 ± 20 nM | 70 ± 10 nM | > 50000 nM | > 50000 nM |  |  | 
6 | CC(C)CC(NC(=O)OCC1CC1c1cccc(F)c1)C(=O)NC(CC1CCNC1=O)C(O)S(=O)(=O)O (stereo not shown) [5d] | 230 ± 80 nM | > 50000 nM | 50 ± 20 nM |  | > 50000 nM | 190 ± 20 nM | > 50000 nM | > 50000 nM | 20 ± 20 nM | 70 ± 30 nM | > 50000 nM | > 50000 nM |  |  | 
